These results are taken from patent US20090041862A1, “Detecting disease association with aberrant glycogen synthase kinase 3beta expression” (priority 2004, published 2009).

The subject of one assay is GSKΔexon9+11. Briefly: Inhibition of endogenous Tau [pS396] phosphorylation in COS-7 cells transfected with GSKΔexon9+11 cDNA (ELISA). It is filed as cell-based, human. How it is done: Lymphocytes (as described in Example 3) or transfected cells were lysed in 1× Lysis buffer (50 mM Tris.HCl (pH 7.4), 150 mM NaCl, 1 mM PMSF, 1× complete cocktail protease inhibitor (Boehringer Mannheim) and 0.05% Triton X-100. Approximately 2-25 μg of total protein was used to assay for total Tau or Tau phosphorylated at serine residue 396 using the Human Tau or Human Tau [pS396] ELISA kit respectively (Biosource International, CA, USA).
COS-7 cells plated onto 12 well plates at concentration of 1×10^5 cells/well and allowed to recover for 24 hours. Each well was transfected with either the GSKΔexon9 or GSKΔexon9+11 cDNA constructs (as described in Example 4) using Lipofectamine 2000.
(An ELISA detects its analyte on a solid surface through an enzyme-linked reagent.)

For assay [1], the target named is Tau (endogenous Tau protein in COS-7 cells). The experiment in a line: cell-based or functional assay.

`Cn1sc(=O)n(Cc2ccccc2)c1=O` [TDZD8]: in the assay with GSKΔexon9+11 (ratio of IC50 values, COS-7 cells), the “increase in sensitivity of GSKΔexon9+11 compared with GSKΔexon9” value worked out at 2 fold. The “suppressing the level of tau phosphorylation in a cell expressing GSK-3β lacking exon 9 and exon 11 vs lacking exon 9” value in the assay on GSKΔexon9+11 (result in words) is on record as “at a level greater than observed in a cell expressing GSK-3β lacking exon 9”. Regarding “GSK-3β lacking exon 9 and exon 11 (GSKΔexon9+11 isoform) (from UniProt P49841 1-420)”, in assay [1], the levels of Tau [pSer396] by ELISA in COS-7 cells transfected with GSK-3β isoform cDNAs stood at 2.5 fold.
